Data taken from patent US20230279021A1, “POLYMORPHS OF A GABAA ALPHA5 AGONIST AND METHODS OF USING IN THE TREATMENT OF COGNITIVE IMPAIRMENT” (AGENEBIO, INC., priority 2020, published 2023).
Entries after “also recorded” stand apart in the source; their conditions may differ.

Columns and labels:
aged-impaired rats [1] = test: Radial Arm Maze behavioral task, acute PO treatment; format: in vivo, Long-Evans rats; settings: 10 mg/kg PO, 5-hr retention delay, compared to vehicle control
Experimental: (§1) Aged, male Long-Evans rats were obtained at 9 months of age from Charles River Laboratories (Raleigh, N.C.) and housed in a vivarium at The Johns Hopkins University until background behavioral assessment in a water maze at 24 months of age. Young rats obtained from the same source were housed in the same vivarium and were included in the background assessment at 6 months of age but were not used for drug testing in a radial arm maze task. All rats were individually housed at 25° C. and maintained on a 12 h light/dark cycle. Food and water were provided ad libitum unless noted otherwise. The rats were examined for health and pathogen-free status throughout the experiments, as well as necropsies at the time of killing. All procedures were in accordance with NIH guidelines using protocols approved by the Institutional Animal Care and Use Committee at The Johns Hopkins University.
All rats were screened in a standardized assessment of spatial cognition before the commencement of drug studies. The background assessment used a well-established Morris water maze protocol as described in detail elsewhere (Gallagher et al, 1993). Briefly, the rats were trained for 8 days (three trials per day) to locate a camouflaged escape platform that remained at the same location throughout training in a water maze. […]

[2] = pKa of Compound 1 free base; format: physicochemical
aged-impaired rats [3] = test: Morris Water Maze behavioral task, acute and chronic IP treatment; format: in vivo, Long-Evans rats; settings: 10 mg/kg IP, compared to vehicle control
Experimental: as §1
All rats were screened in a standardized assessment of spatial cognition before the commencement of drug studies. […]
Rats were trained and tested in a novel water maze environment to assess the effect of the treatments. […] An hour after the last training trial, rats were given a probe test in the absence of the escape platform (free swim) to assess the memory of the platform location as measured by time spent searching at the target location. […]

[4] = Thermal decomposition by DSC; format: physicochemical; settings: 10° C./min
Experimental: DSC was performed using a Mettler-Toledo DSC3+ differential scanning calorimeter. A tau lag adjustment is performed with indium, tin, and zinc. The temperature and enthalpy are adjusted with octane, phenyl salicylate, indium, tin and zinc. The adjustment is then verified with octane, phenyl salicylate, indium, tin, and zinc. The sample was placed into a hermetically sealed aluminum DSC pan, the weight was accurately recorded, and the sample was inserted into the DSC cell. A weighed aluminum pan configured as the sample pan was placed on the reference side of the cell. The pan lid was pierced prior to sample analysis. The samples were analyzed from −25° C. to 250° C. at 10° C./min.

[5] = Dynamic vapor sorption (DVS) hygroscopicity; format: physicochemical; settings: for hygroscopicity (DVS isotherm): 5% to 95% RH; for form of material recovered from the DVS experiment by XRPD: post DVS
Experimental: Dynamic vapor sorption data was collected on a Surface Measurement System DVS Intrinsic instrument. The samples were not dried prior to analysis. Sorption and desorption data were collected over a range from 5% to 95% RH in 10% RH increments under a nitrogen purge. The equilibrium criteria used for the analyses were 0.001 dm/dt weight change in 5 minutes with a minimum step time of 30 minutes and maximum equilibration time of 180 minutes with a 3-minute data logging interval. Data were not corrected for the initial moisture content of the sample. The samples were identified as having low, limited or significant hygroscopicity based on the definitions in the below table.

[6] = Competitive interconversion slurry experiments (relative thermodynamic stability of crystalline forms); format: physicochemical; settings: solvent-mediated interconversion slurries, ambient temperature (Form E also 55° C. and 77° C.)
Experimental: Interconversion experiments were performed to identify the most thermodynamically stable anhydrous form of Compound 1 (Table 9). […] The choice of solvent affects the kinetics of polymorph conversion and not the thermodynamic relationship between polymorphic forms.
Various combinations of Forms B, E, F, and Material D were slurried with Form A at ambient and elevated temperatures (for experiments involving Form E). Different solvent systems were used and included a variety of water activities. Saturated solutions were generated and then added to the mixtures composed of approximately equivalent quantities of the forms. The mixtures were slurried for a particular duration of time and the solids harvested and analyzed by XRPD.

[7] = Solid-state stability of crystalline forms on storage or heating (XRPD); format: physicochemical
Experimental: XRPD patterns were collected with a PANalytical X'Pert PRO MPD or a PANalytical Empyrean diffractometer using an incident beam of Cu radiation produced using an Optix long, fine-focus source. An elliptically graded multilayer mirror was used to focus Cu Kα X-rays through the specimen and onto the detector. Prior to the analysis, a silicon specimen (NIST SRM 640e) was analyzed to verify the observed position of the Si 111 peak is consistent with the NIST-certified position. A specimen of the sample was sandwiched between 3-μm-thick films and analyzed in transmission geometry. A beam-stop, short antiscatter extension, and antiscatter knife edge were used to minimize the background generated by air. Soller slits for the incident and diffracted beams were used to minimize broadening from axial divergence. Diffraction patterns were collected using a scanning position-sensitive detector (X'Celerator) located 240 mm from the specimen and Data Collector software v. 5.5. […] All images have the instrument labeled as X'Pert PRO MPD regardless of the instrument used.

COCc1nnc2n1Cc1c(C#Cc3cnc(OC)s3)ncn1-c1ccc(Cl)cc1-2 [Compound 1, 5-((3-chloro-7-(methoxymethyl)-9H-benzo[f]imidazo[1,5-a][1,2,4]triazolo[4,3-d][1,4]diazepin-10-yl)ethynyl)-2-methoxythiazole]
number of errors in radial arm maze retention test (aged-impaired rats [1]): fewer errors | pKa [2]: 1.16 ± 0.04 | time spent in target quadrant of the Morris Water Maze (aged-impaired rats [3]): more time in the target quadrant

COCc1nnc2n1Cc1c(C#Cc3cnc(OC)s3)ncn1-c1ccc(Cl)cc1-2 [Form A]
DSC exotherm due to decomposition, onset [4]: about 207 °C | hygroscopicity (DVS isotherm) [5]: limited hygroscopicity; also recorded: low hygroscopicity | weight change through the sorption/desorption cycle ([5]; DVS, no hysteresis): ~0.3% | form of material recovered from the DVS experiment by XRPD [5]: same as the starting material | relative thermodynamic stability [6]: more thermodynamically stable than Form B and Material D at ambient temperature and more thermodynamically stable than Form E at ambient temperature, 55° C., and 77 °C

COCc1nnc2n1Cc1c(C#Cc3cnc(OC)s3)ncn1-c1ccc(Cl)cc1-2 [Form B]
DSC exotherm due to decomposition, onset [4]: about 190 °C | relative thermodynamic stability [6]: metastable relative to Form A

COCc1nnc2n1Cc1c(C#Cc3cnc(OC)s3)ncn1-c1ccc(Cl)cc1-2 [Form C]
DSC exotherm due to decomposition, onset [4]: 190 °C | stability under ambient conditions ([7]; 9 weeks under ambient conditions): unchanged | stability upon overnight exposure to 80° C. ([7]; overnight exposure to 80° C.): desolvate to Form B

COCc1nnc2n1Cc1c(C#Cc3cnc(OC)s3)ncn1-c1ccc(Cl)cc1-2 [Form E]
DSC exotherm due to decomposition, onset [4]: ~201 °C | relative thermodynamic stability [6]: metastable relative to Form A

COCc1nnc2n1Cc1c(C#Cc3cnc(OC)s3)ncn1-c1ccc(Cl)cc1-2 [Form F]
DSC exotherms following dehydration endotherm (decomposition upon dehydration) [4]: above 120 °C | stability under vacuum ([7]; 5 days under vacuum at ambient temperature): unchanged | stability upon exposure to 100° C. ([7]; exposure to 100° C. (several minutes, XRPD)): dehydrate; also recorded: loss of crystallinity | hygroscopicity (DVS isotherm) [5]: limited hygroscopicity | weight gain ([5]; DVS, from 5-95% RH): 1.8% | weight loss upon desorption ([5]; DVS, significant hysteresis): 1.5% | form of material recovered from the DVS experiment by XRPD [5]: still Form F

COCc1nnc2n1Cc1c(C#Cc3cnc(OC)s3)ncn1-c1ccc(Cl)cc1-2 [Material D]
DSC exotherm due to decomposition, onset [4]: ~174 °C | stability on ambient storage (XRPD) ([7]; 7 weeks of ambient storage, mixture with Form A): still remained | relative thermodynamic stability [6]: metastable relative to Form A
